Measured values: patent US10738028B2, “Spiro three-membered ring, spiro five-membered ring peptide deformylase inhibitor and use thereof in antibacteria and anti-tumor” (priority 2016, dated 2020)

How the values were obtained:
Type in all cases: cell-based
[1] = system: Enterococcus faecalis (EFA); experiment: MIC, two-fold agar dilution (CLSI), clinical isolates
Procedure, shortened: (§1)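 Samples are serially diluted two-fold in agar following CLSI guidance. Plates are then inoculated with the tested strains. The lowest inhibiting concentration is recorded as MIC.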

[2] = system: Enterococcus faecium (EFM); experiment: as above
Procedure, shortened: as §1

[3] = system: Escherichia coli (including ESBLs, non-ESBLs); experiment: as above
Procedure, shortened: as §1

[4] = system: Moraxella catarrhalis (BCA); experiment: as above
Procedure, shortened: as §1

[5] = system: Streptococcus pneoumoniae (SPN); experiment: as above
Procedure, shortened: as §1

[6] = system: methicillin-resistant Staphylococcus aureus (MRSA); experiment: as above
Procedure, shortened: as §1

[7] = system: methicillin-resistant Staphylococcus epidermidis (MRSE); experiment: as above
Procedure, shortened: as §1

[8] = system: methicillin-sensitive Staphylococcus aureus (MSSA); experiment: as above
Procedure, shortened: as §1

[9] = system: methicillin-sensitive Staphylococcus epidermidis (MSSE); experiment: as above
Procedure, shortened: as §1

[10] = system: HCT-116 colorectal cancer cell line; experiment: CCK-8 proliferation inhibition; conditions: concentration of 30 μM, 72 hours, CCK-8
Procedure, shortened: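 Cells were plated overnight at 2000 cells/well, then compound in culture medium was added at a range of final concentrations. After 72 hours in a CO2 incubator, medium was replaced with 1:10 CCK-8 solution for the read-out.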

[11] = system: A549 lung cancer cell line; experiment: CCK-8 proliferation inhibition; conditions: concentration of 30 μM
Procedure, shortened: (§2)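 Plating at 2000 cells/well, then incubation overnight at 37° C. Next, a range of compound concentrations for 72 hours (control 1‰ DMSO). Finally, medium decanted and CCK-8 diluted 1:10 added.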

[12] = system: BEL-7402 liver cancer cell line; experiment: CCK-8 proliferation inhibition; conditions: concentration of 30 μM
Procedure, shortened: as §2

[13] = system: MGC-803 gastric cancer cell line; experiment: CCK-8 proliferation inhibition; conditions: Homo sapiens, MGC-803, 72 h, concentration of 30 μM
Procedure, shortened: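 Proliferation was measured with 1:10 diluted CCK-8 after a 72-hour incubation with the inhibitors at various final concentrations, using 1‰ DMSO as the control. Cells were plated at 2000 per well. Culture media contained 10% newborn bovine serum: 1640 for Jurkat and MGC-803, F12 for PC3, DMEM high glucose for MCF-7.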

In the case of `CCCC[C@H](CC(=O)NO)C(=O)N1CC2(CC2)C[C@H]1C(=O)Nc1ccc(F)cn1` [Example 46, (S)—N-(5-fluoropyridin-2-yl)-5-((R)-2-(2-(hydroxyamino)-2-oxoethyl)hexanoyl)-5-spiro[2.4]heptane-6-carboxamide], the Anti-bacterial activity (MIC), strain EFA 15-1 ([1]; clinical isolate EFA 15-1) is reported as greater than 32 µg/mL, the Anti-bacterial activity (MIC), strain EFA 15-2 ([1]; clinical isolate EFA 15-2) is reported as greater than 32 µg/mL and the Anti-bacterial activity (MIC), strain EFA 15-3 ([1]; clinical isolate EFA 15-3) is reported as greater than 32 µg/mL. It also gave an Anti-bacterial activity (MIC), strain EFA 15-4 ([1]; clinical isolate EFA 15-4) greater than 32 µg/mL, an Anti-bacterial activity (MIC), strain EFA 15-5 ([1]; clinical isolate EFA 15-5) greater than 32 µg/mL and an Anti-bacterial activity (MIC), strain EFA 15-6 ([1]; clinical isolate EFA 15-6) greater than 32 µg/mL. For the same compound, the Anti-bacterial activity (MIC), strain EFA 15-9 ([1]; clinical isolate EFA 15-9) was 4 µg/mL, the Anti-bacterial activity (MIC), strain EFM 15-1 ([2]; clinical isolate EFM 15-1) was greater than 32 µg/mL and the Anti-bacterial activity (MIC), strain EFM 15-2 ([2]; clinical isolate EFM 15-2) was greater than 32 µg/mL. For the same compound, the Anti-bacterial activity (MIC), strain EFM 15-3 ([2]; clinical isolate EFM 15-3) was greater than 32 µg/mL, the Anti-bacterial activity (MIC), strain EFM 15-4 ([2]; clinical isolate EFM 15-4) was greater than 32 µg/mL and the Anti-bacterial activity (MIC), strain EFM 15-5 ([2]; clinical isolate EFM 15-5) was 0.5 µg/mL. It also gave an Anti-bacterial activity (MIC), strain EFM 15-6 ([2]; clinical isolate EFM 15-6) of 1 µg/mL, an Anti-bacterial activity (MIC), strain ECO+ 15-1 ([3]; clinical isolate ECO+ 15-1) of 32 µg/mL and an Anti-bacterial activity (MIC), strain ECO+ 15-2 ([3]; clinical isolate ECO+ 15-2) greater than 32 µg/mL. For the same compound, the Anti-bacterial activity (MIC), strain ECO+ 15-3 ([3]; clinical isolate ECO+ 15-3) was greater than 32 µg/mL, the Anti-bacterial activity (MIC), strain ECO+ 15-4 ([3]; clinical isolate ECO+ 15-4) was 1 µg/mL and the Anti-bacterial activity (MIC), strain ECO− 15-1 ([3]; clinical isolate ECO− 15-1) was greater than 32 µg/mL. For the same compound, the Anti-bacterial activity (MIC), strain ECO− 15-2 ([3]; clinical isolate ECO− 15-2) was greater than 32 µg/mL, the Anti-bacterial activity (MIC), strain ECO− 15-3 ([3]; clinical isolate ECO− 15-3) was greater than 32 µg/mL and the Anti-bacterial activity (MIC), strain ECO− 15-4 ([3]; clinical isolate ECO− 15-4) was greater than 32 µg/mL. It also gave an Anti-bacterial activity (MIC), strain BCA 14-1 ([4]; clinical isolate BCA 14-1) of 1 µg/mL, an Anti-bacterial activity (MIC), strain BCA 14-4 ([4]; clinical isolate BCA 14-4) of 1 µg/mL and an Anti-bacterial activity (MIC), strain BCA 14-5 ([4]; clinical isolate BCA 14-5) of 0.5 µg/mL. For the same compound, the Anti-bacterial activity (MIC), strain BCA 14-6 ([4]; clinical isolate BCA 14-6) was 0.5 µg/mL, the Anti-bacterial activity (MIC), strain BCA 14-7 ([4]; clinical isolate BCA 14-7) was 1 µg/mL and the Anti-bacterial activity (MIC), strain BCA 14-8 ([4]; clinical isolate BCA 14-8) was 1 µg/mL. The Anti-bacterial activity (MIC), strain BCA 14-10 ([4]; clinical isolate BCA 14-10) was 0.5 µg/mL, the Anti-bacterial activity (MIC), strain SPN 16-2 ([5]; clinical isolate SPN 16-2) was 0.5 µg/mL and the Anti-bacterial activity (MIC), strain SPN 16-4 ([5]; clinical isolate SPN 16-4) was 0.5 µg/mL. For the same compound, the Anti-bacterial activity (MIC), strain MRSA 15-1 ([6]; clinical isolate MRSA 15-1) was 0.25 µg/mL, the Anti-bacterial activity (MIC), strain MRSA 15-2 ([6]; clinical isolate MRSA 15-2) was 1 µg/mL and the Anti-bacterial activity (MIC), strain MRSA 15-3 ([6]; clinical isolate MRSA 15-3) was 1 µg/mL. The Anti-bacterial activity (MIC), strain MRSA 15-4 ([6]; clinical isolate MRSA 15-4) was 1 µg/mL, the Anti-bacterial activity (MIC), strain MRSE 15-1 ([7]; clinical isolate MRSE 15-1) was 1 µg/mL and the Anti-bacterial activity (MIC), strain MRSE 15-2 ([7]; clinical isolate MRSE 15-2) was 1 µg/mL. The Anti-bacterial activity (MIC), strain MRSE 15-3 ([7]; clinical isolate MRSE 15-3) was 1 µg/mL, the Anti-bacterial activity (MIC), strain MRSE 15-7 ([7]; clinical isolate MRSE 15-7) was 1 µg/mL and the Anti-bacterial activity (MIC), strain MSSA 15-3 ([8]; clinical isolate MSSA 15-3) was 0.25 µg/mL. For the same compound, the Anti-bacterial activity (MIC), strain MSSA 15-4 ([8]; clinical isolate MSSA 15-4) was 1 µg/mL, the Anti-bacterial activity (MIC), strain MSSA 15-5 ([8]; clinical isolate MSSA 15-5) was 1 µg/mL and the Anti-bacterial activity (MIC), strain MSSA 15-6 ([8]; clinical isolate MSSA 15-6) was greater than 32 µg/mL. The Anti-bacterial activity (MIC), strain MSSE 15-3 ([9]; clinical isolate MSSE 15-3) was 1 µg/mL, the Anti-bacterial activity (MIC), strain MSSE 15-4 ([9]; clinical isolate MSSE 15-4) was 1 µg/mL and the Anti-bacterial activity (MIC), strain MSSE 15-5 ([9]; clinical isolate MSSE 15-5) was 1 µg/mL. The Anti-bacterial activity (MIC), strain MSSE 15-6 ([9]; clinical isolate MSSE 15-6) was 1 µg/mL, the inhibition at 30 µM ([10]; Homo sapiens, HCT-116, 72 h, read-out: HCT116 inhibition rate/%) was greater than 50% and the HCT116 inhibition rate/% ([10]; 30 µM) was 58%. The inhibition at 30 µM ([11]; Homo sapiens, A549, 72 h) was greater than 50%, the “Inhibition of proliferation, Lung cancer A549” value ([11]; 72 hours, 30 µM) was 60% and the inhibition at 30 µM ([12]; Homo sapiens, Bel-7402, 72 h) was greater than 50%. The “Inhibition of proliferation, Liver cancer BEL-7402” value ([12]; 72 hours, 30 µM) was 70% and the inhibition at 30 µM [13] was 48%.
